# Test results from patent US20070196277A1, “Compositions and Methods for the Direct Therapy of Tumors” (priority 2006, published 2007).
# Read-outs that look alike come from different tables or passages of the source.
# Tests used:
# marrow cells = details: in vitro human bone marrow assay; cited from earlier work
# [1] = cited from earlier work
# rat brain = test system: rat brain
# Excerpt: This conversion is based upon comparison of the mass of the rat brain (approximately 2.5 gms) and human brain (approximately 1350 gms).
# cat brain = test system: cat brain
# Excerpt: This conversion is based upon comparison of the cat brain (approximately 20 gms) and human brain (approximately 1350 gms).
# [2] = cited from earlier work; remark: listed apart in the source
# [3] = target: T1, dihydrouracil dehydrogenase (Homo sapiens, UniProt Q12882); details: cited from earlier work
# T1 sequence (Q12882 4-1025): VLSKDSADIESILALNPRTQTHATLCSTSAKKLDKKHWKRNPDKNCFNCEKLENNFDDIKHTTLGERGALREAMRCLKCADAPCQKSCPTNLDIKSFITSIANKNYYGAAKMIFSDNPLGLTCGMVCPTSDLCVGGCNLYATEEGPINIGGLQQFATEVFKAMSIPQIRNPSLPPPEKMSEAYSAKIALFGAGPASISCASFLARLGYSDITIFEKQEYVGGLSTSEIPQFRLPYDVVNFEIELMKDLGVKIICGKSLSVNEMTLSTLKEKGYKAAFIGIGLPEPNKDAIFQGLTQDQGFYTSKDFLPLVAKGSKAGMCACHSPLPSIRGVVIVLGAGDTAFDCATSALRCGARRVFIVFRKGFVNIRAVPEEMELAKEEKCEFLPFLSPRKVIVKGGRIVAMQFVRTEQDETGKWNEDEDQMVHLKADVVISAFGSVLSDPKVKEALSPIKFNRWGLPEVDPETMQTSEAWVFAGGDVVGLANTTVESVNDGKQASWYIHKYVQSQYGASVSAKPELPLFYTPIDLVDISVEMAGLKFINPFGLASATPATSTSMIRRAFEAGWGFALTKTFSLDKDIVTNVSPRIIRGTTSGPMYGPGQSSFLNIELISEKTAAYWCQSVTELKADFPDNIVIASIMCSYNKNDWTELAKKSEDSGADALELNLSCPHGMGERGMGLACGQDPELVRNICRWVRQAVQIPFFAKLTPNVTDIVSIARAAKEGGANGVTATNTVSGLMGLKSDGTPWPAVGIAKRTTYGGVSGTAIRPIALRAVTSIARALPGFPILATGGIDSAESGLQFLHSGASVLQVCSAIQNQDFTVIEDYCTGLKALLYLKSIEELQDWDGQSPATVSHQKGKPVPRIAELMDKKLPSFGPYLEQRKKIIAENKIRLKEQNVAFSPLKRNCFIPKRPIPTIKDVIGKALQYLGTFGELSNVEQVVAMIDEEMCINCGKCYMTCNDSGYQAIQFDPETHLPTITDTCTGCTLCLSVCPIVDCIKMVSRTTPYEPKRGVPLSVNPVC
# [4] = powder, light-protected container, room temperature; cited from earlier work
# [5] = test system: intracerebral T9 gliosarcoma tumors; details: same dose delivered systemically; cited from earlier work
# [6] = test system: Walker Carcinosarcoma 256 tumors; details: cited from earlier work
# [7] = cited from earlier work; remark: listed apart in the source
# [8] = cited from earlier work; remark: listed apart in the source
structure (smiles),measurement,setting,value
"O=c1[nH]c(=O)n([C@H]2C[C@H](O)[C@@H](CO)O2)cc1I [IdUrd, 5-iodo-2′-deoxyuridine]",cytotoxicity to marrow cells relative to IUra,marrow cells,at least 100 times
"CC(C)NC(C)Cc1ccc(I)cc1 (stereo not drawn) [iofetamine, N-isopropyl-p-iodoamphetamine]","plasma elimination half-time, first phase",[1]; biphasic elimination,1.6 ± 1.2 h
same,"plasma elimination half-time, second phase",[1]; biphasic elimination,10.9 ± 6.1 h
same,blood-brain barrier passage,[1]; in vivo,crosses the intact blood-brain barrier
CCO [ethanol],maximally tolerated volume extrapolated to normal human brain,"rat brain; from rat, by brain mass 2.5 gms vs 1350 gms",10.8 mL
same,maximally tolerated volume with no apparent neurologic deficit,rat brain; rat brain,20 μl
same,maximally tolerated volume with no apparent neurologic deficit,"cat brain; cat brain, unpublished data",0.4 ml
same,maximally tolerated volume extrapolated to normal human brain,"cat brain; from cat, by brain mass 20 gms vs 1350 gms",27 mL
"Oc1ncc(I)c(O)n1 [IUra, 2,4-dihydroxy-5-iodopyrimidine]",apparent Michaelis constant of disappearance from plasma,"[2]; after the infusion, nonlinear",30 mumol/L
same,maximum plasma IUra concentration,[2]; following infusion of 500 to 1200 mg/m^2 of IdUrd,100 mumol/L
same,plasma IUra relative to simultaneous IdUrd plasma concentration,[2]; following infusion of IdUrd,about 10 times
same,inhibition of dihydrouracil dehydrogenase,[3],competitive inhibitor
same,storage stability,[4],1 year
"O=NN(CCCl)C(=O)NCCCl [BCNU, 1,3-bis(2-chloroethyl)-1-nitrosourea]",cures,[5],no cures
same,increase in life span,[5],no increase in life span
same,antitumor efficacy,"[6]; aqueous vehicle, injected intratumorally","had antitumor efficacy, but far less than the same BCNU dose formulated in ethanol"
same,therapeutic benefit,"[6]; systemic administration, same dose (25 mg/kg)",no therapeutic benefit
same,half life in serum,[7],about 15 minutes
same,blood-brain barrier passage,[8]; in vivo,crosses the blood-brain barrier quite effectively
same,total dose excreted as respiratory CO2,[8]; in vivo,about 10%
same,intact BCNU in serum,"[8]; intravenous, after 60 minutes",little intact BCNU
